{
  "source": "patent US8524727B2",
  "about": "“Pyrimidine compound” (Astellas Pharma Inc., priority 2009, dated 2013)",
  "key": {"human CB2": {"biological_target": "T1, human CB2 (Homo sapiens, UniProt P34972)", "T1 construct": "expressed in transfected cells; host or cells: CHO cells", "T1 sequence (P34972 whole entry)": "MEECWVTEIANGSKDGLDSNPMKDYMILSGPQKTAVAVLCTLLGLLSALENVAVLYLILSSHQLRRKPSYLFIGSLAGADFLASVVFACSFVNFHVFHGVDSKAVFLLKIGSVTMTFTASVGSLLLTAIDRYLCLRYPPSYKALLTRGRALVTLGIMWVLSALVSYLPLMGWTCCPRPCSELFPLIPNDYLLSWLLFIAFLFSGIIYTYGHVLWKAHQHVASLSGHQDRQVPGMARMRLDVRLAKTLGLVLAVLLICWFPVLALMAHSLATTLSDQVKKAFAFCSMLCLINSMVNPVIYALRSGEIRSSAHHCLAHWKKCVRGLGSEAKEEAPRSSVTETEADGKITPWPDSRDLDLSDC", "assay": "Human CB2-mediated cyclic AMP (cAMP) production inhibition assay", "type": "cell-based", "conditions": "30 nM test substance, human CB2-expressing CHO cells, forskolin 0.5 μM, 30 minutes at room temperature; for inhibition at 0.03 µM: CHO, read-out: Inh (%): inhibitory rate of cAMP increase", "protocol": "The present test was performed using CHO cells expressing human CB2 (“Molecular Pharmacology”, 1995, vol. 48, p. 443-450).\nA suspension of human CB2-expressing CHO cells (2.5×10^3/mL), and an assay medium added with a test substance and forskolin (final concentration 0.5 μM) were mixed in the equivalent amounts, and incubated at room temperature for 30 minutes. Then, the cAMP concentration in the cell lysis solution obtained by the addition of a 0.6% Triton X-100 solution was measured using a cAMP kit (manufactured by Cisbio international). The assay medium includes an α-MEM medium manufactured by Invitrogen, supplemented with 0.02% CHAPS, 1 mM isobutylmethyl xanthine, and 0.5 mg/mL bovine serum albumin. As the cAMP concentration in the cell suspension without the addition of forskolin was set as a cAMP increase rate of 0% and the cAMP concentration in the cell suspension with the addition of forskolin was set as a cAMP increase rate of 100%, the inhibitory rate of the intracellular cAMP increase at 30 nM test substance was determined.\nIn the table, Ex indicates Example Compound number below, and Inh indicates an inhibitory rate of cAMP increase."}, "[1]": {"test_system": "adjuvant-induced arthritis rats", "assay": "Inhibitory effect on hind paw weight distribution in adjuvant-induced arthritis rats", "type": "in vivo", "conditions": "orally administered, female Lewis rats", "protocol": "For the experiment, female Lewis rats (7-8 week old) were used. 50 μL of inactivated Mycobacterium tuberculosis H37 Ra (manufactured by DIFCO) suspended with liquid paraffin to 10 mg/mL was administered subcutaneously into the right hindlimb footpad. The test substance was orally administered next day, the weights of the left and right hind paws after an arbitrary time were measured using Incapasitance Tester (manufactured by Columbus Instruments), and the weight distribution between left and right was calculated. As the weight distribution of the group administered with the vehicle was set as the inhibitory rate of 0% and the weight distribution of the normal group was set as the inhibitory rate of 100%, the inhibitory rate of the test substance was calculated.\nIn the table, Ex indicates Example Compound number below, Inh indicates an inhibitory rate of the weight distribution, and the description after to @ means the administration amount."}},
  "data": [
    {"compound": "O=C(c1cnc(NC23CC4CC(CC(C4)C2)C3)nc1C(F)(F)F)N1CCC(F)(F)CC1", "note": "[Example 45]", "values": [
      {"measurement": "inhibition at 0.03 µM", "setting": "human CB2", "value": 79, "unit": "%"}
    ]},
    {"compound": "CC1(C)CCN(c2ncc(C(=O)N3CCS(=O)(=O)CC3)c(C(F)(F)F)n2)c2ccccc21", "note": "[Example 55]", "values": [
      {"measurement": "inhibition at 0.03 µM", "setting": "human CB2", "value": 63, "unit": "%"}
    ]},
    {"compound": "CC(C)c1nc(N[C@@H]2C[C@H]3CC[C@@H]2C3)ncc1C(=O)N1CCOCC1", "note": "[Example 64]", "values": [
      {"measurement": "Inh (%): inhibitory rate of the weight distribution", "setting": "[1]; 0.1 mpk", "value": "52@0.1 mpk %"},
      {"measurement": "Inh (%): inhibitory rate of cAMP increase", "setting": "human CB2", "value": 85, "unit": "%"}
    ]},
    {"compound": "O=C(c1cnc(N[C@@H]2C[C@H]3CC[C@@H]2C3)nc1C1CC1)N1CCS(=O)(=O)CC1", "note": "[Example 67]", "values": [
      {"measurement": "inhibition at 0.03 µM", "setting": "human CB2", "value": 76, "unit": "%"}
    ]},
    {"compound": "CC(C)(C)c1nc(N[C@@H]2C[C@H]3CC[C@@H]2C3)ncc1C(=O)N1CCOCC1", "note": "[Example 72]", "values": [
      {"measurement": "Inh (%): inhibitory rate of the weight distribution", "setting": "[1]; 0.1 mpk", "value": "40@0.1 mpk %"},
      {"measurement": "inhibition at 0.03 µM", "setting": "human CB2", "value": 99, "unit": "%"}
    ]},
    {"compound": "CC(C)c1nc(N[C@H]2C[C@@H]3CC[C@H]2C3)ncc1C(=O)N1CCOCC1", "note": "[Example 79]", "values": [
      {"measurement": "inhibition at 0.03 µM", "setting": "human CB2", "value": 74, "unit": "%"}
    ]},
    {"compound": "CC(C)c1nc(N[C@@H]2C[C@H]3CC[C@@H]2C3)ncc1C(=O)N1CCOCC1", "note": "[Example 83]", "values": [
      {"measurement": "inhibition at 0.03 µM", "setting": "human CB2", "value": 84, "unit": "%"}
    ]},
    {"compound": "O=C(c1cnc(NC23CC4CC(CC(O)(C4)C2)C3)nc1C(F)(F)F)N1CC(F)(F)C(F)(F)C1", "note": "[Example 88]", "values": [
      {"measurement": "inhibition at 0.03 µM", "setting": "human CB2", "value": 76, "unit": "%"}
    ]},
    {"compound": "O=C(c1cnc(N[C@@H]2C[C@H]3CC[C@@H]2C3)nc1C(F)(F)F)N1CCS(=O)(=O)CC1", "note": "[Example 103]", "values": [
      {"measurement": "Inh (%): inhibitory rate of the weight distribution", "setting": "[1]; 0.3 mpk", "value": "41@0.3 mpk %"},
      {"measurement": "inhibition at 0.03 µM", "setting": "human CB2", "value": 67, "unit": "%"}
    ]},
    {"compound": "CC1(C)[C@@H]2CC[C@@]1(C)[C@@H](Nc1ncc(C(=O)N3CCS(=O)(=O)CC3)c(C(F)(F)F)n1)C2", "note": "[Example 106]", "values": [
      {"measurement": "inhibition at 0.03 µM", "setting": "human CB2", "value": 74, "unit": "%"}
    ]},
    {"compound": "O=C(c1cnc(NC23CC4(F)CC(F)(CC(F)(C4)C2)C3)nc1C(F)(F)F)N1CCS(=O)(=O)CC1", "note": "[Example 109]", "values": [
      {"measurement": "Inh (%): inhibitory rate of the weight distribution", "setting": "[1]; 0.3 mpk", "value": "35@0.3 mpk %"},
      {"measurement": "inhibition at 0.03 µM", "setting": "human CB2", "value": 80, "unit": "%"}
    ]},
    {"compound": "O=C(c1cnc(NC23CCC(CC2)CC3)nc1C(F)(F)F)N1CCS(=O)(=O)CC1", "note": "[Example 122]", "values": [
      {"measurement": "Inh (%): inhibitory rate of the weight distribution", "setting": "[1]; 0.1 mpk", "value": "45@0.1 mpk %"},
      {"measurement": "inhibition at 0.03 µM", "setting": "human CB2", "value": 70, "unit": "%"}
    ]},
    {"compound": "O=C(c1cnc(N[C@@H]2C[C@H]3CC[C@@H]2C3)nc1C(F)(F)F)N1CCS(=O)(=O)CC1", "note": "[Example 133]", "values": [
      {"measurement": "Inh (%): inhibitory rate of cAMP increase", "setting": "human CB2", "value": 80, "unit": "%"}
    ]},
    {"compound": "O=C(c1cnc(N[C@H]2C[C@@H]3CC[C@H]2C3)nc1C(F)(F)F)N1CCS(=O)(=O)CC1", "note": "[Example 138]", "values": [
      {"measurement": "inhibition at 0.03 µM", "setting": "human CB2", "value": 49, "unit": "%"}
    ]},
    {"compound": "O=C(c1cnc(NC23CC4CC(CC(C4)C2)C3)nc1C(F)(F)F)N1CCOCC1", "note": "[Example 143]", "values": [
      {"measurement": "inhibition at 0.03 µM", "setting": "human CB2", "value": 70, "unit": "%"}
    ]},
    {"compound": "FC1(F)CCN(Cc2cnc(N[C@@H]3C[C@H]4CC[C@@H]3C4)nc2C(F)(F)F)CC1", "note": "[Example 161]", "values": [
      {"measurement": "inhibition at 0.03 µM", "setting": "human CB2", "value": 75, "unit": "%"}
    ]}
  ]
}
